The record followed here is patent publication US8895313B2, “Ligands for aggregated tau molecules” (Wista Laboratories Ltd., priority 2008, dated 2014).

Each structure is given as a SMILES string. Bounds are passed on as bounds.

PHF (paired helical filaments) isolated from the brain of an Alzheimer's disease patient, sequence (P10636 623-708 limits assumed): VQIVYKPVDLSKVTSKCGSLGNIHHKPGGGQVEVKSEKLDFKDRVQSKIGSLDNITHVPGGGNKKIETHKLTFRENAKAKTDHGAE

The target of the first experiment is PHF (paired helical filaments) isolated from the brain of an Alzheimer's disease patient (Homo sapiens, UniProt P10636). Description: Competitive binding assay: displacement of primulin fluorescence from PHFs. More on the design: key to P50: fl indicates that the compound is fluorescent. Consequently, binding levels for the compound in the competition binding assay cannot be determined by fluorescent spectroscopy. The following applies: compound fluorescent, no P50 obtainable. The procedure:
The DSB compounds were tested for their ability to bind to PHF in a competition-style assay.
If a test compound that also binds to PHFs with the same or greater affinity is added, it will displace the reference ligand and reduce the fluorescence signal. In the present assay, the reference compound is primulin, which was added at 1 μM. Test compounds were added at concentrations from 0.05 to 1 μM. The P50 for a test compound is defined as the concentration of compound that reduces the primulin signal to 50% of the control value. This value is, therefore, not an absolute affinity, but a relative affinity compared to the affinity of primulin.
PHFs were isolated from the brain of an Alzheimer's disease patient essentially as described by Wischik et al. (Neurobiology of Aging, Vol. 16, pp. 409-431, 1995). The IFII fraction was isolated by centrifugation on a sucrose gradient as described in the PhD thesis of C. M. Wischik, and was further extracted into an ‘abc sup’ as described by C. M. Wischik (Thesis “The structure and biochemistry of paired helical filaments in Alzheimer's disease” Part I and II; Cambridge University, 1989).
The assay for ligand activity was performed in 96 well plates (Nunc Cat. No. 236108). The test compound at the required concentration was mixed with PHFs, then primulin was added to give a final concentration of 1 μM and a total volume of 100 μl. The concentration of PHFs added was determined for each preparation to give an adequate fluorescence signal, and was typically in the range 1-2 μl/100 μl. The test compounds were typically dissolved in DMSO to give a final concentration of 10% DMSO in the assay. The control fluorescence, in the absence of PHFs, was also measured in the presence of 10% DMSO.
The fluorescence was measured in a Varian Carey Eclipse Fluorescence Spectrophotometer, with the […] wavelength at 480 nm. Excitation spectra were recorded and corrected by subtraction of the signal measured in the absence of PHFs, using the Varian software. The fluorescence signal at the peak […] wavelength of 420 nm was measured from the corrected spectra. The fluorescence values were plotted as a function of concentration of test compound, and the value for P50 measured from the graph.
As for `Oc1ccc2nc(-c3ccc(/C=C/c4ccc(NCC(F)(F)F)cc4)cc3)sc2c1` [BEHF-02], the P50 entry is on record as “fl”.

Still in this experiment, the particulars now being: concentration that reduces the signal of 1 μM primulin to 50% of control; relative affinity.
Take `COc1ccc2nc(-c3ccc(/C=C/c4ccccc4C(F)(F)F)cc3)sc2c1` [BEFA-01]: the P50 entry is on record as “no effect”.

Consider `COc1ccc(C(=O)Nc2ccc(-c3nc4ccc(OC)cc4s3)cc2OC)c(C(F)(F)F)c1` [ABFMA-10], for which the P50 entry is reported as “no effect”.

In the case of `CN(C)c1ccc(C(=O)Nc2ccc(-c3cn4cccnc4n3)cc2)cc1` [AIPM-01], the P50 result was “no effect”.

On to `Oc1ccc2nc(-c3ccc(/C=C/c4ccc(NCCCC(F)(F)F)cc4)cc3)sc2c1` [BEHF-04], for which the P50 entry is listed as “no effect”.

With `COc1ccc2nc(-c3ccc(NC(=O)c4ccccc4C(F)(F)F)cc3)sc2c1` [ABFMA-01], the P50 result is reported as “no effect”.

`COc1ccc2nc(-c3ccc(/C=C/c4ccc(OCCF)cc4)cc3)sc2c1` [BEFA-12]: the P50 entry is listed as “no effect”.

For the compound `Cc1ccc2nc(-c3ccc(NC(=O)c4ccc(F)nc4)cc3)cn2c1` [AIPN-06], the P50 result is “no effect”.

`Cc1ccc2nc(-c3ccc(/C=C/c4ccccc4N)cc3)sc2c1` [BEMA-05]: the P50 entry was “no effect”.

As to `COc1ccc2nc(-c3ccc(/C=C/c4ccc(C(F)(F)F)cc4)cc3)sc2c1` [BEFA-03], the P50 result is given as “no effect”.

For the compound `Oc1ccc(/N=N/c2ccc(-c3nc4cc(OC(F)(F)F)ccc4s3)cc2)cc1` [BDF-09], the P50 entry was “no effect”.

On to `Cc1ccc2nc(-c3ccc(NC(=O)c4cccc(N)c4)cc3)sc2c1` [ABAA-05], for which the P50 entry is “no effect”.

For `CNc1cccc(C(=O)Nc2ccc(-c3nc4ccc(C)cc4s3)cc2)c1` [ABAA-12], the P50 result was “no effect”.

As for `Cc1ccc2nc(-c3ccc(/C=C/c4ccccc4O)cc3)sc2c1` [BEMA-09], the P50 entry was “no effect”.

Still in this experiment, the particulars now being: concentration that reduces the signal of 1 μM primulin to 50% of control; relative affinity; read-out: P50.
In the case of `Oc1ccc(/N=N/c2ccc(-c3nc4ccc(O)cc4s3)c(O)c2)c(C(F)(F)F)c1` [BDF-14], the IC50 stood at 20 nM.

Regarding `Cc1ccc2nc(-c3ccc(NC(=O)c4cc(F)c(N(C)C)c(F)c4)cc3)cn2c1` [AIPN-16], the IC50 is over 1000 nM.

Turning to `O=C(Nc1ccc(-c2nc3ccc(O)cc3s2)c(O)c1)c1ccc(F)cc1` [ABFHA-07], the IC50 came out at 100 nM.

As for `CN(C)c1ccc(C(=O)Nc2ccc(-c3cn4ccccc4n3)cc2)cc1` [AIPN-01], the IC50 was over 1000 nM.

`COc1cc(NC(=O)c2ccc(F)c([N+](=O)[O-])c2)ccc1-c1nc2ccccc2s1` [AUB-01]: the IC50 was over 1000 nM.

In the case of `COc1ccc(C(=O)Nc2ccc(-c3cn4cc(C)ccc4n3)cc2)cc1F` [AIPN-23], the IC50 was 950 nM.

In the case of `Cc1ccc2nc(-c3ccc(NC(=O)c4ccc([N+](=O)[O-])c(C(F)(F)F)c4)cc3)cn2c1` [AIPN-09], the IC50 is 340 nM.

Take `COc1cc(F)c(C(=O)Nc2ccc(-c3cn4cc(C)ccc4n3)cc2)c(F)c1` [AIPN-25]: the IC50 is over 1000 nM.

Take `COc1ccc2nc(-c3ccc(NC(=O)c4ccc(N)c(C(F)(F)F)c4)cc3)sc2c1` [ABFMA-15]: the IC50 was found to be 430 nM.

On to `Oc1ccc(/N=N/c2ccc(-c3nc4ccc(O)cc4s3)cc2)c(C(F)(F)F)c1` [BDF-04], for which the IC50 was found to be 80 nM.

Take `COc1ccc(C(=O)Nc2ccc(-c3cn4cc(C)ccc4n3)cc2)cc1C(F)(F)F` [AIPN-28]: the IC50 was over 1000 nM.

As for `Oc1ccc(/N=N/c2ccc(-c3nc4cc(O)ccc4s3)cc2)c(C(F)(F)F)c1` [BDF-05], the IC50 came to 90 nM.

Take `O=C(Nc1ccc(-c2nc3ccc(O)cc3s2)cc1)c1cc(OC(F)(F)F)ccc1O` [ABFHA-09]: the IC50 was over 1000 nM.

Turning to `O=C(Nc1ccc(-c2nc3ccc(O)cc3s2)cc1)c1ccc(OCCCC(F)(F)F)cc1` [ABFHA-05], the IC50 was 400 nM.

With `COc1ccc2nc(-c3ccc(NC(=O)c4ccccc4N(C)C)cc3)sc2c1` [ABMA-07], the IC50 came out at 1350 nM.

With `COCCOCCOCCOc1cc(NC(=O)c2ccc(F)c([N+](=O)[O-])c2)ccc1-c1nc2ccccc2s1` [AUB-02], the IC50 was over 1000 nM.

Regarding `Cc1ccc2nc(-c3ccc(/N=N/c4cc(C(F)(F)F)ccc4O)cc3)sc2c1` [BDF-02], the IC50 amounted to 460 nM.
